Counter-ions that a name gives are not always drawn. Like-named read-outs stand apart in the source and are kept apart here.
Legend:
Format in all cases: biochemical
recombinant PRL-2 = target: T1, recombinant PRL-2 (Homo sapiens, UniProt Q12974); assay: In vitro phosphatase assay (DiFMUP hydrolysis), PRL-2;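 also: PRL-2 activity read as DiFMUP hydrolysis after 20 min at room temperature with drug, enzyme first pre-reduced at 4 °C for 20 min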
T1 construct: 6xHis (N, cleaved yes); made in house; host or cells: E. coli One Shot BL21 Star
T1 sequence (Q12974 1-167): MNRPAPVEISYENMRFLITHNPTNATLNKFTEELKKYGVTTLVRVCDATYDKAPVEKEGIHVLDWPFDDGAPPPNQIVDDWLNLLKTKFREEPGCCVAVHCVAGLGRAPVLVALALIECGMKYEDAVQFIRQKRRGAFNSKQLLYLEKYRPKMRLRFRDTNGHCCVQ

recombinant PRL-1 = target: T2, recombinant PRL-1 (Homo sapiens, UniProt Q93096); assay: In vitro phosphatase assay (DiFMUP hydrolysis), PRL-1; also: test concentration or dose not given here
T2 construct: 6xHis (N, cleaved yes); made in house; host or cells: E. coli One Shot BL21 Star
T2 sequence (Q93096 1-173): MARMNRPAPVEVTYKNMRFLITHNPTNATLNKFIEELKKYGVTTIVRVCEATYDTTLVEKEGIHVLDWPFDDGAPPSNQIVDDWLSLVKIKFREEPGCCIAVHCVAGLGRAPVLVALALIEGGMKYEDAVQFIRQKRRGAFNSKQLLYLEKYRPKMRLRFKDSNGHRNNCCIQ

recombinant PRL-3 = target: T3, recombinant PRL-3 (Homo sapiens, UniProt O75365); assay: In vitro phosphatase assay (DiFMUP hydrolysis), PRL-3; also: test concentration or dose not given here
T3 construct: 6xHis (N, cleaved yes); made in house; host or cells: E. coli One Shot BL21 Star
T3 sequence (O75365 whole entry): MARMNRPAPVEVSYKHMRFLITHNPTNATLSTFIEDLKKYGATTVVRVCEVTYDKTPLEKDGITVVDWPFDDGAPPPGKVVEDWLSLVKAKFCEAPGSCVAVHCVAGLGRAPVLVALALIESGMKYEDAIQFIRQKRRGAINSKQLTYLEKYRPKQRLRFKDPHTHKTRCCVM

[1] = FDA-approved drug screen, activity compared to DMSO

SMILES | % Phosphatase Activity (compared to DMSO) PRL-2 (recombinant PRL-2; [1]) | % Phosphatase Activity (compared to DMSO) PRL-1 (recombinant PRL-1; [1]) | % Phosphatase Activity (compared to DMSO) PRL-3 (recombinant PRL-3; [1]) | % Phosphatase Activity (compared to DMSO) PRL-2 (recombinant PRL-2) | % Phosphatase Activity (compared to DMSO) PRL-1 (recombinant PRL-1) | % Phosphatase Activity (compared to DMSO) PRL-3 (recombinant PRL-3)
Cc1cn([C@@H]2C[C@@H](O)[C@H](CO)O2)c(=O)[nH]c1=O [Telbivudine] | 89% | 106% | 80% |  |  | 
CCCc1nc2c(C)cc(-c3nc4ccccc4n3C)cc2n1Cc1ccc(-c2ccccc2C(=O)O)cc1 [Telmisartan] | 77% | 86% | 92% |  |  | 
CCOC(=O)[C@@H](N)Cc1ccc(-c2cc(O[C@H](c3ccc(Cl)cc3-n3ccc(C)n3)C(F)(F)F)nc(N)n2)cc1.O=C(O)CNC(=O)c1ccccc1 [Telotristat Etiprate (LX 1606 Hippurate)] | 108% | 106% | 97% |  |  | 
CCOC(=O)[C@H](CCc1ccccc1)N[C@H]1CS[C@H](c2cccs2)CN(CC(=O)O)C1=O [Temocapril HCl] | 93% | 91% | 73% |  |  | 
Cn1nnc2c(C(N)=O)ncn2c1=O [Temozolomide] | 94% | 87% | 65% |  |  | 
CO[C@H]1C[C@@H]2CC[C@@H](C)[C@@](O)(O2)C(=O)C(=O)N2CCCC[C@H]2C(=O)O[C@H]([C@H](C)C[C@@H]2CC[C@@H](OC(=O)C(C)(CO)CO)[C@H](OC)C2)CC(=O)[C@H](C)/C=C(\C)[C@@H](O)[C@@H](OC)C(=O)[C@H](C)C[C@H](C)/C=C/C=C/C=C/1C [Temsirolimus (CCI-779, NSC 683864)] | 111% | 96% | 91% |  |  | 
COc1cc([C@@H]2c3cc4c(cc3[C@@H](O[C@@H]3O[C@@H]5CO[C@@H](c6cccs6)O[C@H]5[C@H](O)[C@H]3O)[C@H]3COC(=O)[C@H]23)OCO4)cc(OC)c1O [Teniposide] | 98% | 95% | 97% |  |  | 
CC(C)OC(=O)[C@H](C)N[P@](=O)(CO[C@H](C)Cn1cnc2c(N)ncnc21)Oc1ccccc1 [Tenofovir Alafenamide (GS-7340)] |  |  |  | 74% | 94% | 91%
CC(C)OC(=O)OCOP(=O)(CO[C@H](C)Cn1cnc2c(N)ncnc21)OCOC(=O)OC(C)C [Tenofovir Disoproxil Fumarate] | 93% | 95% | 82% |  |  | 
C[C@H](Cn1cnc2c(N)ncnc21)OCP(=O)(O)O [Tenofovir] | 120% | 103% | 100% |  |  | 
CN1C(C(=O)Nc2ccccn2)=C(O)c2sccc2S1(=O)=O [Tenoxicam] | 75% | 92% | 71% |  |  | 
COc1cc2nc(N3CCN(C(=O)C4CCCO4)CC3)nc(N)c2cc1OC (stereo not drawn) [Terazosin HCl] | 644% | 510% | 324% |  |  | 
COc1cc2nc(N3CCN(C(=O)C4CCCO4)CC3)nc(N)c2cc1OC (stereo not drawn) [Terazosin] | 423% | 595% | 448% |  |  | 
CN(C/C=C/C#CC(C)(C)C)Cc1cccc2ccccc12 [Terbinafine HCl] | 108% | 100% | 86% |  |  | 
CC(C)(C)NCC(O)c1cc(O)cc(O)c1 (stereo not drawn) [Terbutaline Sulfate] | 97% | 95% | 101% |  |  | 
CC(C)(C)c1ccc(C(O)CCCN2CCC(C(O)(c3ccccc3)c3ccccc3)CC2)cc1 (stereo not drawn) [Terfenadine] | 100% | 96% | 91% |  |  | 
C/C(O)=C(\C#N)C(=O)Nc1ccc(C(F)(F)F)cc1 [Teriflunomide] | 98% | 95% | 84% |  |  | 

SMILES | % Phosphatase Activity (compared to DMSO) PRL-2 (recombinant PRL-2; [1]) | % Phosphatase Activity (compared to DMSO) PRL-1 (recombinant PRL-1; [1]) | % Phosphatase Activity (compared to DMSO) PRL-3 (recombinant PRL-3; [1]) | % Phosphatase Activity (compared to DMSO) PRL-2 (recombinant PRL-2) | % Phosphatase Activity (compared to DMSO) PRL-1 (recombinant PRL-1) | % Phosphatase Activity (compared to DMSO) PRL-3 (recombinant PRL-3)
CC1(O)CCC(C(C)(C)O)CC1.O (stereo not drawn) [Terpin (hydrate)] | 92% | 88% | 80% |  |  | 
COc1cc2c(cc1OC)C1CC(=O)C(CC(C)C)CN1CC2 (stereo not drawn) [Tetrabenazine (Xenazine)] | 89% | 81% | 84% |  |  | 
CCCCNc1ccc(C(=O)OCCN(C)C)cc1 [Tetracaine HCl] | 116% | 99% | 88% |  |  | 
CN(C)[C@@H]1C(O)=C(C(N)=O)C(=O)[C@@]2(O)C(O)=C3C(=O)c4c(O)cccc4[C@@](C)(O)[C@H]3C[C@@H]12 [Tetracycline HCl] | 86% | 99% | 61% |  |  | 
Cl.c1ccc2c(c1)CCCC2C1=NCCN1 (stereo not drawn) [Tetrahydrozoline HCl] | 109% | 111% | 58% |  |  | 
Cl.c1ccc(C2CN3CCSC3=N2)cc1 (stereo not drawn) [Tetramisole HCl] |  |  |  | 83% | 97% | 102%
O=C1CCC(N2C(=O)c3ccccc3C2=O)C(=O)N1 (stereo not drawn) [Thalidomide] | 91% | 97% | 79% |  |  | 
Cn1c(=O)c2[nH]cnc2n(C)c1=O [Theophylline] | 98% | 105% | 84% |  |  | 
c1ccc2[nH]c(-c3cscn3)nc2c1 [Thiabendazole] | 99% | 99% | 119% |  |  | 
CS(=O)(=O)c1ccc([C@@H](O)[C@@H](CO)NC(=O)C(Cl)Cl)cc1 [Thiamphenicol] | 125% | 103% | 81% |  |  | 
CSc1ccc2c(c1)N(CCC1CCCCN1C)c1ccccc1S2 (stereo not drawn) [Thioridazine HCl] |  |  |  | 104% | 95% | 97%
Cc1ccsc1C(=CCCN1CCC[C@@H](C(=O)O)C1)c1sccc1C [Tiagabine hydrochloride] | 97% | 100% | 83% |  |  | 
Cc1ccsc1C(=CCCN1CCC[C@@H](C(=O)O)C1)c1sccc1C [Tiagabine] | 104% | 100% | 78% |  |  | 
CCCSc1nc(N[C@@H]2C[C@H]2c2ccc(F)c(F)c2)c2nnn([C@@H]3C[C@H](OCCO)[C@@H](O)[C@H]3O)c2n1 [Ticagrelor] | 94% | 97% | 85% |  |  | 
O=c1sn(-c2cccc3ccccc23)c(=O)n1Cc1ccccc1 [Tideglusib] | 120% | 107% | 98% |  |  | 
CN(C)c1cc(NC(=O)CNC(C)(C)C)c(O)c2c1C[C@H]1C[C@H]3[C@H](N(C)C)C(O)=C(C(N)=O)C(=O)[C@@]3(O)C(O)=C1C2=O [Tigecycline] | 45% | 36% | 24% |  |  | 

Source: article PMC8119466, “A screen of FDA-approved drugs identifies inhibitors of protein tyrosine phosphatase 4A3 (PTP4A3 or PRL-3)” (Scientific Reports, 2021)
